Key:
Type in all cases: functional
[1] = test system: Escherichia coli; assay: Bactericidal activity against Escherichia coli ATCC 25922 assessed as reduction in bacterial colonies preincubated for 10 mins followed by bacterial plating on Luria-Bertani plates and measured after 18 to 24 hrs relative to control; design: concentration or dose not given beside the values
[2] = test system: Escherichia coli; assay: Bactericidal activity against Escherichia coli ATCC 25922 assessed as log reduction in bacterial colonies preincubated for 10 mins followed by bacterial plating on Luria-Bertani plates and measured after 18 to 24 hrs relative to control
[3] = test system: Staphylococcus aureus; assay: Bactericidal activity against Staphylococcus aureus ATCC 25923 assessed as reduction in bacterial colonies preincubated for 5 mins followed by bacterial plating on Luria-Bertani plates and measured after 18 to 24 hrs relative to control; design: concentration or dose not given beside the values
[4] = test system: Staphylococcus aureus; assay: Bactericidal activity against Staphylococcus aureus ATCC 25923 assessed as log reduction in bacterial colonies preincubated for 10 mins followed by bacterial plating on Luria-Bertani plates and measured after 18 to 24 hrs relative to control
[5] = test system: Escherichia coli; assay: Bactericidal activity against Escherichia coli ATCC 25922 assessed as reduction in bacterial colonies preincubated for 5 mins followed by bacterial plating on Luria-Bertani plates and measured after 18 to 24 hrs relative to control; design: concentration or dose not given beside the values
[6] = test system: Staphylococcus aureus; assay: Bactericidal activity against Staphylococcus aureus ATCC 25923 assessed as log reduction in bacterial colonies preincubated for 5 mins followed by bacterial plating on Luria-Bertani plates and measured after 18 to 24 hrs relative to control
[7] = test system: Escherichia coli; assay: Bactericidal activity against Escherichia coli ATCC 25922 assessed as log reduction in bacterial colonies preincubated for 5 mins followed by bacterial plating on Luria-Bertani plates and measured after 18 to 24 hrs relative to control
[8] = test system: Staphylococcus aureus; assay: Bactericidal activity against Staphylococcus aureus ATCC 25923 assessed as reduction in bacterial colonies preincubated for 10 mins followed by bacterial plating on Luria-Bertani plates and measured after 18 to 24 hrs relative to control; design: concentration or dose not given beside the values
[9] = test system: Staphylococcus aureus; assay: Bactericidal activity against Staphylococcus aureus ATCC 25923 assessed as reduction in bacterial colonies using initial inoculum of 4 x 10^7 CFU/ml preincubated for 5 mins followed by bacterial plating on Luria-Bertani plates and measured after 18 to 24 hrs relative to control; design: scale not given: the % may be the effect or the level left

SMILES | Activity [1] | log(activity) [2] | Activity [3] | log(activity) [4] | Activity [5] | log(activity) [6] | log(activity) [7] | Activity [8] | Activity [9]
CC1(C)C(=O)N(CCC[N+](C)(C)C)C(=O)N1Cl.[Cl-] | 99.3% | 2.18 | 11.8% | 0.6 | 42.2% | 0.05 | 0.24 | 75% | –
CC1(C)C(=O)N(CCC[N+](C)(C)CC(=O)[O-])C(=O)N1Cl | 100% | 6.63 | 34.3% | 6.83 | 86.7% | 0.18 | 0.88 | 100% | 15%
CC1(C)NC(=O)N(CCO)C1=O | 0% | 0 | 0% | 0 | 0% | 0 | 0 | 0% | –
CC1(C)NC(=O)N(CCC[N+](C)(C)CC(=O)[O-])C1=O | 0% | 0 | 0% | 0 | 0% | 0 | 0 | 0% | –
CC1(C)C(=O)N(CCO)C(=O)N1Cl | 100% | 6.63 | 100% | 6.83 | 100% | 6.83 | 6.63 | 100% | 99.8%
CC1(C)C(=O)N(CCC[N+](C)(C)CCCS(=O)(=O)[O-])C(=O)N1Cl | 89.9% | 1 | 19.8% | 0.29 | 25.1% | 0.1 | 0.13 | 49.1% | –
CC1(C)NC(=O)N(CCC[N+](C)(C)CCCS(=O)(=O)[O-])C1=O | 0% | 0 | 0% | 0 | 0% | 0 | 0 | 0% | –
CC1(C)NC(=O)N(CCC[N+](C)(C)C)C1=O.[Cl-] | 0% | 0 | 0% | 0 | 0% | 0 | 0 | 0% | –
